Assay results: PMC7692329, “Inhibitory Effect of AB-PINACA, Indazole Carboxamide Synthetic Cannabinoid, on Human Major Drug-Metabolizing Enzymes and Transporters” (Pharmaceutics, 2020)
Where two headings read alike, the source gives them in different places.

Tests used:
OCT2 = target: T1, OCT2 (Homo sapiens, UniProt O15244); assay: OCT2-mediated methyl-4-phenylpyridinium uptake in HEK293-OCT2 cells; assay type: in vitro ADME
T1 construct: host or cells: HEK293

OATP1B3 = target: T2, OATP1B3 (Homo sapiens, UniProt Q9NPD5); assay: OATP1B3-mediated estradiol-17β-D-glucuronide uptake in HEK293-OATP1B3 cells; assay type: in vitro ADME
T2 construct: host or cells: HEK293

P-gp = target: T3, P-gp (Homo sapiens, UniProt P08183); assay: P-gp-mediated B to A transport of digoxin in LLC-PK1-MDR1 cells; assay type: in vitro ADME
T3 construct: host or cells: LLC-PK1

BCRP = target: T4, BCRP (Homo sapiens, UniProt Q9UNQ0); assay: BCRP-mediated B to A transport of estrone-3-sulfate in LLC-PK1-BCRP cells; assay type: in vitro ADME
T4 construct: host or cells: LLC-PK1

[1] = test system: human cannabinoid receptor type 1 (hCB1); conditions: cited from earlier work
[2] = test system: human cannabinoid receptor type 2 (hCB2); conditions: cited from earlier work
[3] = parameters: method as in PMID 26105953; conditions: cited from earlier work
[4] = 25 of 58 cases; dose regimen not specified; cited from earlier work
[5] = child, chewing an AB-PINACA contaminated cigarette; cited from earlier work
CYP2B6 = CYP2B6 (Homo sapiens, UniProt P20813); assay: CYP2B6 bupropion hydroxylase inhibition in ultrapooled human liver microsomes
UGT1A1 = UGT1A1 (Homo sapiens, UniProt P22309); assay: UGT1A1 SN-38 glucuronidation inhibition in ultrapooled human liver microsomes
CYP2A6 = CYP2A6 (Homo sapiens, UniProt P11509); assay: CYP2A6 coumarin 7-hydroxylase inhibition in ultrapooled human liver microsomes
CYP1A2 = CYP1A2 (Homo sapiens, UniProt P05177); assay: CYP1A2 phenacetin O-deethylase inhibition in ultrapooled human liver microsomes
CYP2C8 = target: T5, CYP2C8 (Homo sapiens, UniProt P10632); assay: CYP2C8 amodiaquine N-deethylase inhibition in ultrapooled human liver microsomes; conditions: for IC50: CYP2C8 amodiaquine N-deethylase, ultrapooled human liver microsomes
T5 sequence (P10632 1-490): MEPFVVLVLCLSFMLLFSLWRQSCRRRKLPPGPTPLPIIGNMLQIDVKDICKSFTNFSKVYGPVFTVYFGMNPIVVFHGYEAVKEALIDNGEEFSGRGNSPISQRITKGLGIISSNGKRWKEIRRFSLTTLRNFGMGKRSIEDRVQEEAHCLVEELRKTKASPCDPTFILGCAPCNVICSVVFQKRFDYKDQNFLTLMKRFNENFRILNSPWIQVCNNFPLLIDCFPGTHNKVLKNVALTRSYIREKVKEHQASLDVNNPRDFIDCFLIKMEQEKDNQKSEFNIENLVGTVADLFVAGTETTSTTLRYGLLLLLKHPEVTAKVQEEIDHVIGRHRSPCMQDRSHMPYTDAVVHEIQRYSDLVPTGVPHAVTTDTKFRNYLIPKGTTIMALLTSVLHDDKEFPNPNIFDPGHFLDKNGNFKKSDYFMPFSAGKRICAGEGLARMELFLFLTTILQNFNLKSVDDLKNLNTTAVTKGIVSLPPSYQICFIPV

CYP2D6 = CYP2D6 (Homo sapiens, UniProt P10635); assay: CYP2D6 bufuralol 1'-hydroxylase inhibition in ultrapooled human liver microsomes
CYP2C9 = CYP2C9 (Homo sapiens, UniProt P11712); assay: CYP2C9 diclofenac 4'-hydroxylase inhibition in ultrapooled human liver microsomes; conditions: for IC50: CYP2C9 diclofenac 4'-hydroxylase, ultrapooled human liver microsomes
UGT2B7 = UGT2B7 (Homo sapiens, UniProt P16662); assay: UGT2B7 naloxone 3-β-D-glucuronidation inhibition in ultrapooled human liver microsomes
CYP2C19 = CYP2C19 (Homo sapiens, UniProt P33261); assay: CYP2C19 [S]-mephenytoin 4'-hydroxylase inhibition in ultrapooled human liver microsomes; conditions: for IC50: CYP2C19 [S]-mephenytoin 4'-hydroxylase, ultrapooled human liver microsomes
UGT1A4 = UGT1A4 (Homo sapiens, UniProt P22310); assay: UGT1A4 trifluoperazine N-glucuronidation inhibition in ultrapooled human liver microsomes
UGT1A6 = UGT1A6 (Homo sapiens, UniProt P19224); assay: UGT1A6 N-acetylserotonin glucuronidation inhibition in ultrapooled human liver microsomes
UGT1A9 = UGT1A9 (Homo sapiens, UniProt O60656); assay: UGT1A9 mycophenolic acid glucuronidation inhibition in ultrapooled human liver microsomes
UGT1A3 = UGT1A3 (Homo sapiens, UniProt P35503); assay: UGT1A3 chenodeoxycholic acid 24-acyl-β-glucuronidation inhibition in ultrapooled human liver microsomes
CYP3A4 = CYP3A4 (Homo sapiens, UniProt P08684); assay: CYP3A4 midazolam 1'-hydroxylase inhibition and inactivation kinetics in ultrapooled human liver microsomes; conditions: for IC50: CYP3A4 midazolam 1'-hydroxylase, ultrapooled human liver microsomes
[6] = IC50 With NADPH Preincubation, 30-min preincubation with NADPH
[7] = IC50 Without NADPH Preincubation, without NADPH preincubation
[8] = human, liver microsomes, pH 7.4, probe midazolam

Sequence of CYP2C9 (P11712 whole entry): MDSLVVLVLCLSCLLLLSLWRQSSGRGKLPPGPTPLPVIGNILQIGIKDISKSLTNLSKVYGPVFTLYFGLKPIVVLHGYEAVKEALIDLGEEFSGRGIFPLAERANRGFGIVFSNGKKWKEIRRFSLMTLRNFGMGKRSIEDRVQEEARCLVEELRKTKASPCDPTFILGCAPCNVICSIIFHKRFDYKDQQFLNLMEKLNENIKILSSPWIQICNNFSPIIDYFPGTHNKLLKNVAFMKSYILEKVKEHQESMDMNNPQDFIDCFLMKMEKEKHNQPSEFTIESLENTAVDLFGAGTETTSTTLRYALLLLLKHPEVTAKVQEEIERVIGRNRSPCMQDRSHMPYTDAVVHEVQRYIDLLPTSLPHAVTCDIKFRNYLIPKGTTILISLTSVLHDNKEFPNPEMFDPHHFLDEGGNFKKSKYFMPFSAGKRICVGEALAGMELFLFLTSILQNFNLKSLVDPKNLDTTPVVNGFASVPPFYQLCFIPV
Sequence of CYP2C19 (P33261 whole entry): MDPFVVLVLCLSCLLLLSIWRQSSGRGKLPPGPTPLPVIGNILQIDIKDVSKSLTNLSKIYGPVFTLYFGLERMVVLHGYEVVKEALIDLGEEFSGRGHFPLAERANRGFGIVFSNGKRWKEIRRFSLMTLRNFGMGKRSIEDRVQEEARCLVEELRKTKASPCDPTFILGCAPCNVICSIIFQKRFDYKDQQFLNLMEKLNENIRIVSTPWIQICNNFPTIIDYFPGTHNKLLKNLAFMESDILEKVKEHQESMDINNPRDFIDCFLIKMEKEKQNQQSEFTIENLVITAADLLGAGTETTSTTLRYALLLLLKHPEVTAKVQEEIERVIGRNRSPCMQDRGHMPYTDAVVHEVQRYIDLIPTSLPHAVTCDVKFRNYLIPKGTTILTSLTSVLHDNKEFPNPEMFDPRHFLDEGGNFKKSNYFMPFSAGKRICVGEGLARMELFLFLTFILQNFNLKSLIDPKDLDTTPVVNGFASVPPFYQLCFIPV
Sequence of CYP3A4 (P08684 whole entry): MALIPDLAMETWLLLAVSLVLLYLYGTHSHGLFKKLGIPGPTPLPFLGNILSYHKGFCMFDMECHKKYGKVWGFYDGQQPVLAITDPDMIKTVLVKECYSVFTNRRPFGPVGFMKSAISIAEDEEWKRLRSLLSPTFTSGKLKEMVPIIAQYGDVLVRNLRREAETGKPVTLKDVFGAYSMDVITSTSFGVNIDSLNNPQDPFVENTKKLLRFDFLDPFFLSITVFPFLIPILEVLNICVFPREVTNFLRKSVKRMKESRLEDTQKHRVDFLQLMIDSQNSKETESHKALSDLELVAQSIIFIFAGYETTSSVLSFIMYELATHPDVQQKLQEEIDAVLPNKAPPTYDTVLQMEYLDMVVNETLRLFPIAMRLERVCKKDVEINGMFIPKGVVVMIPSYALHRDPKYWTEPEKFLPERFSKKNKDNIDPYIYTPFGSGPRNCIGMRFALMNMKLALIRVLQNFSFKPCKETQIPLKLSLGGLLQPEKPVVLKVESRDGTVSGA
Sequence of CYP1A2 (P05177 whole entry): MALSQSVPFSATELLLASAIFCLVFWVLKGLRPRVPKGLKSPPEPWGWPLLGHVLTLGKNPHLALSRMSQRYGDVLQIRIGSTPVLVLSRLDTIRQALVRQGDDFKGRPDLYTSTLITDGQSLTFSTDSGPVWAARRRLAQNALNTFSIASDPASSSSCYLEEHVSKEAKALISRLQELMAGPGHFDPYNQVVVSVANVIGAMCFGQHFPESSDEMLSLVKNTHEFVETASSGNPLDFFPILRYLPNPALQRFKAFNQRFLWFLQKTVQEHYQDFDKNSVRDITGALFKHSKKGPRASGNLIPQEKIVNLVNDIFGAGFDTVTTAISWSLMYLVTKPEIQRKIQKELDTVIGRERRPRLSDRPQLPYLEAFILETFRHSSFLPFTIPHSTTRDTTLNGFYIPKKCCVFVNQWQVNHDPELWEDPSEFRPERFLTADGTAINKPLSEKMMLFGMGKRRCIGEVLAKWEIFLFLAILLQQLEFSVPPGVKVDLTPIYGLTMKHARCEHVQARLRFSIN
Sequence of CYP2A6 (P11509 whole entry): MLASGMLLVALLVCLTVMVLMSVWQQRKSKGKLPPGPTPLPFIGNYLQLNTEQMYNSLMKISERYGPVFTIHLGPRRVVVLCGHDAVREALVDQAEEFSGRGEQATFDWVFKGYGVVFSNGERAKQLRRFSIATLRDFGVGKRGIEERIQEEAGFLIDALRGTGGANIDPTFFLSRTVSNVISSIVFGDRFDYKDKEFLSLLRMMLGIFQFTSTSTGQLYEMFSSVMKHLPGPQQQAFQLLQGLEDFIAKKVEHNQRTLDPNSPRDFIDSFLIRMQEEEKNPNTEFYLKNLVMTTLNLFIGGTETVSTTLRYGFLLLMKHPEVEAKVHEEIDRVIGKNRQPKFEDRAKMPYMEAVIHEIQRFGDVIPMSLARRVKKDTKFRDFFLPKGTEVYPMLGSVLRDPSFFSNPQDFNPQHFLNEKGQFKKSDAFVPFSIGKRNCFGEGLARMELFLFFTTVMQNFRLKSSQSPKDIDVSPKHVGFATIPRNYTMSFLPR
Sequence of CYP2B6 (P20813 whole entry): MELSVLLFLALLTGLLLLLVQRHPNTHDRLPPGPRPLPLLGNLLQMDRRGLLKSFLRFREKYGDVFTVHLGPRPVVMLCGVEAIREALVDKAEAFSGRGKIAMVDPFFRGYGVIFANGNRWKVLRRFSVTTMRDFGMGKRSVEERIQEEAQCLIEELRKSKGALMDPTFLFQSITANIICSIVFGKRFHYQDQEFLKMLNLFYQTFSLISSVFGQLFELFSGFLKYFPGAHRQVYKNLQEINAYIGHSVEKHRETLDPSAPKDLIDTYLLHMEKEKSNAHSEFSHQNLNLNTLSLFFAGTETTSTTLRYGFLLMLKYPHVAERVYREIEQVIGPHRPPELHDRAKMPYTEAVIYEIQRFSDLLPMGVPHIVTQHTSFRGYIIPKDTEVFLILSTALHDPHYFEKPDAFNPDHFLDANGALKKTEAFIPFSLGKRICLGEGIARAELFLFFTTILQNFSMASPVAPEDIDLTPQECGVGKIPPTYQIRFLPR
Sequence of CYP2D6 (P10635 whole entry): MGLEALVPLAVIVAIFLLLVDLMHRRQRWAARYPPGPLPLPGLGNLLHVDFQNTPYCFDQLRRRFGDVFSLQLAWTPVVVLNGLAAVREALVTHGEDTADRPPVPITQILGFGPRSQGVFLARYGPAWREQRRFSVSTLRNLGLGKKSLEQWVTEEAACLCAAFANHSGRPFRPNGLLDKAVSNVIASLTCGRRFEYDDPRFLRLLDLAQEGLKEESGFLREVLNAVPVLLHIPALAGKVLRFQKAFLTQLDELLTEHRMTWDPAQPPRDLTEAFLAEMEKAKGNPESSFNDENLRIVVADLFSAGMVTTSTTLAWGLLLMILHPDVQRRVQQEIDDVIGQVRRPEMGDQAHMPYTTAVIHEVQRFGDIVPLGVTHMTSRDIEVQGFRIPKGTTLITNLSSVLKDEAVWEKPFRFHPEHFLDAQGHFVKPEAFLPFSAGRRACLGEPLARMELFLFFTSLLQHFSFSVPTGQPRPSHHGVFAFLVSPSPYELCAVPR
Sequence of UGT1A1 (P22309 26-533): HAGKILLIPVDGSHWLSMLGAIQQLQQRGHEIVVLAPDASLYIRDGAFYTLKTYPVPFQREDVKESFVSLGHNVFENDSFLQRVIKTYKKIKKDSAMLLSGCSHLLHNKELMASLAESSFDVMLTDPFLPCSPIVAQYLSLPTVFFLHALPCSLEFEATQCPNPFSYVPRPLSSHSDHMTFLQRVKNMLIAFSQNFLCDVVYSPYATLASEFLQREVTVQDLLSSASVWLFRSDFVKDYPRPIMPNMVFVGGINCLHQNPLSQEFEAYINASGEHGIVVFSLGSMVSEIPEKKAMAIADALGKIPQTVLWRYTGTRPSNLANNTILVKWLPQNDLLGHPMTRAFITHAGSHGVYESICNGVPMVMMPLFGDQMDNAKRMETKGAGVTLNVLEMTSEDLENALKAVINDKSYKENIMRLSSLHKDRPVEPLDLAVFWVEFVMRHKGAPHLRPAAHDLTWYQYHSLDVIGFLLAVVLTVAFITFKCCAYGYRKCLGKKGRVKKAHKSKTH
Sequence of UGT1A6 (P19224 27-532): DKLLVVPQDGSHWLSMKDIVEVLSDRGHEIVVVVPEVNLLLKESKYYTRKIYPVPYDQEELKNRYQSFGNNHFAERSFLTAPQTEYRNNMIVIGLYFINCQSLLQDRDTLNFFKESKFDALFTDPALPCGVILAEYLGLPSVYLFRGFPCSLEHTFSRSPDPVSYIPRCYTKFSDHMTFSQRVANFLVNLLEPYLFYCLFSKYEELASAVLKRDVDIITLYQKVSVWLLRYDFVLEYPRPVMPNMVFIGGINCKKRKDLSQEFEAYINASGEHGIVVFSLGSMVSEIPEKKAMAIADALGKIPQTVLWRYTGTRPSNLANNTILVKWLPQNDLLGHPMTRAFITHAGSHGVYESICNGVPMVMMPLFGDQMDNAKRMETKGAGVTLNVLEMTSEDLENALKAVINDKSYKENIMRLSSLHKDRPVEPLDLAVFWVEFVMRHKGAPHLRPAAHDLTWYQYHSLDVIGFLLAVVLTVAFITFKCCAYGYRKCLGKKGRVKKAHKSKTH

In the case of `CCCCCn1nc(C(=O)N[C@H](C(N)=O)C(C)C)c2ccccc21` [AB-PINACA, N-[(2S)-1-amino-3-methyl-1-oxobutan-2-yl]-1-pentyl-1H-indazole-3-carboxamide], the IC50 (OCT2) is reported as > 250 µM, the IC50 (OATP1B3) is reported as > 250 µM and the IC50 (P-gp) is reported as > 100 µM. For the same compound, the IC50 (BCRP) was > 100 µM, the “fold higher in vitro binding affinity to hCB1 compared with Δ9-THC” value [1] was 23.3 fold and the Ki ([1]; read-out: receptor binding affinity to hCB1 (Ki)) was 2.87 nM. For the same compound, the “fold higher in vitro binding affinity to hCB2 compared with Δ9-THC” value [2] was 40.9 fold, the Ki ([2]; read-out: receptor binding affinity to hCB2 (Ki)) was 0.88 nM and the “substitution for Δ9-THC” value [3] was “substituted fully and dose dependently”. The “blood (plasma) concentration in suspected impaired driving cases” value [4] was 1.8 to 127 nM, the serum level [5] was 42 ng/mL and the IC50 (CYP2B6) was > 100 µM. The IC50 (CYP2B6; read-out: IC50 With NADPH Preincubation, CYP2B6 bupropion hydroxylase, ultrapooled human liver microsomes, 30-min preincubation with NADPH) was > 100 µM, the IC50 (UGT1A1) was > 100 µM and the IC50 (CYP2A6) was > 100 µM. The IC50 (CYP2A6; read-out: IC50 Without NADPH Preincubation, CYP2A6 coumarin 7-hydroxylase, ultrapooled human liver microsomes, without NADPH preincubation) was > 100 µM, the IC50 (CYP1A2) was > 100 µM and the IC50 (CYP1A2; read-out: IC50 With NADPH Preincubation, CYP1A2 phenacetin O-deethylase, ultrapooled human liver microsomes, 30-min preincubation with NADPH) was > 100 µM. For the same compound, the Ki (CYP2C8) was 16.9 µM, the IC50 (CYP2C8; [6]) was 30.1 µM and the IC50 (CYP2C8; [7]) was 32.5 µM. The “Mode of Inhibition, CYP2C8” value (CYP2C8; amodiaquine N-deethylation, human liver microsomes) was “mixed mode of inhibition”, the IC50 shift at 15 min (CYP2C8; human, liver microsomes, pH 7.4, probe amodiaquine) was 1.1 and the IC50 (CYP2D6) was > 100 µM. For the same compound, the IC50 (CYP2D6; read-out: IC50 With NADPH Preincubation, CYP2D6 bufuralol 1'-hydroxylase, ultrapooled human liver microsomes, 30-min preincubation with NADPH) was > 100 µM, the IC50 (CYP2C9; [6]) was 19.3 µM and the IC50 (CYP2C9; [7]) was 17.4 µM. The Ki (CYP2C9; Ki, CYP2C9, diclofenac 4'-hydroxylation, human liver microsomes, Lineweaver–Burk and Dixon plots) was 16.1 µM, the IC50 shift at 15 min (CYP2C9; human, liver microsomes, pH 7.4, probe diclofenac) was 0.9 and the IC50 (UGT2B7) was > 100 µM. It also gave an IC50 (CYP2C19; [6]) of 23 µM, an IC50 (CYP2C19; [7]) of 20 µM and a Ki (CYP2C19; Ki, CYP2C19, [S]-mephenytoin 4'-hydroxylation, human liver microsomes, Lineweaver–Burk and Dixon plots) of 6.7 µM. For the same compound, the IC50 shift at 15 min (CYP2C19; human, liver microsomes, pH 7.4, probe [S]-mephenytoin) was 0.9, the IC50 (UGT1A4) was > 100 µM and the IC50 (UGT1A6) was 94 µM. The IC50 (UGT1A9) was 65.2 µM, the IC50 (UGT1A3) was 84.1 µM and the Ki (CYP3A4) was 17.6 µM. It also gave an IC50 (CYP3A4; [6]) of 24.4 µM, an IC50 (CYP3A4; [7]) of 66.4 µM and an IC50 shift at 15 min (CYP3A4; [8]) of 2.7. The kinact (CYP3A4; [8]) was 0.000674 s⁻¹ and the “Mode of Inhibition, CYP3A4” value (CYP3A4; midazolam 1'-hydroxylation, human liver microsomes) was “time-dependent inhibition”.
